Assay results reported in patent EP4778921A1, “SALT FORM AND CRYSTAL FORM OF NITROGEN-CONTAINING HETEROCYCLIC DERIVATIVE INHIBITOR, AND PREPARATION METHOD THEREFOR AND USE THEREOF” (Shanghai Hansoh Biomedical Co., Ltd., priority 2023, dated 2025).
Where a name gives a salt, the structure may show the parent alone.

What was measured:
Ba/F3 EGFR Del19/C797S = assay: Cell proliferation inhibition experiment (Cell Titer-Glo); format: cell-based; conditions: Mus musculus, 72 hours, read-out: Ba/F3 EGFR Dell9/C797S IC50
Procedure: Experimental objective: The objective of this test example is to test the inhibitory activity of compounds on the proliferation of different EGFR C797S drug-resistant mutant cell lines Ba/F3 EGFR Del19/T790M/C797S, Ba/F3 EGFR L858R/T790M/C797S, and Ba/F3 EGFR Del19/C797S. Experimental instruments: Centrifuge (Eppendorf 5810R); Microplate reader (BioTek Synergy H1) Pipette (Eppendorf or Rainin); Carbon dioxide incubator (Thermo 311) Cell counter (Life Countess II) Experimental reagents and consumables: • Ba/F3 EGFR Del19/T790M/C797S cells were purchased from KYinno Biotechnology Co., Ltd.; • Ba/F3 EGFR Del19/C797S cells were purchased from CoBioer Biosciences Co., Ltd.; • Ba/F3 EGFR L858R/T790M/C797S cells were purchased from CoBioer Biosciences Co., Ltd.; • Cell Titer-Glo was purchased from Promega, with a catalogue number of G7573; • RPMI 1640 was purchased from Gibco, with a catalogue number of 22400089; • FBS was purchased from Gibco, with a catalogue number of 10091148; • cell culture plates were purchased from Corning, with a catalogue number of 3610. Experimental methods: The inhibitory activity of the compound on the proliferation of different EGFR C797S drug-resistant mutant cell lines was detected using the Cell Titer-Glo method. The different cell lines were cultured in RPMI 1640 complete culture medium containing 10% FBS under conditions of 37°C and 5% CO2, the cells were collected by centrifugation when growing to a certain density, and adjusted to appropriate cell density after counting, the cells were spread on a white 96-well plate at 90 µL/well, and cultured in a 37°C, 5% CO2 incubator overnight, prepared compound solutions at different concentrations were added at 10 µL/well, corresponding solvent controls were set, and all wells were cultured in a 37°C, 5% CO2 incubator for 72 hours, 50 µL of CellTiter-Glo solution was added to each well, shook and mixed evenly, and incubated in the dark for 10 minutes, and a BioTek Synergy H1 microplate reader was used for reading. Experimental data processing method: The luminescence signal value was used to calculate the inhibition rate. Graphpad Prism software was used to fit the concentration and inhibition rate to a nonlinear regression curve, so as to obtain the IC50 value, as shown in the Table below for details.

[1] = Solubility experiments in different media, crystal forms of salts; format: physicochemical; parameters: thermodynamic solubility FaSSIF / thermodynamic solubility FaSSGF / thermodynamic solubility FeSSIF: unit not given here; conditions: about 2 mg suspended for 24 hours, 37°C, HPLC, external standard method; for thermodynamic solubility FaSSGF: FaSSGF (artificial simulated gastric fluid); for thermodynamic solubility FaSSIF: FaSSIF (fasted-state artificial simulated intestinal fluid); for thermodynamic solubility FeSSIF: FeSSIF (fed-state artificial simulated intestinal fluid)
Excerpt: 4.1 Experimental objective: The solubility of the crystal form A of phosphate, crystal form A of hydrochloride, crystal form A of sulphate, crystal form A of citrate, crystal form A of oxalate, crystal form A of maleate and crystal form A of salicylate in media such as artificial simulated gastric fluid (FaSSGF), fasted-state artificial simulated intestinal fluid (FaSSIF), and fed-state artificial simulated intestinal fluid (FeSSIF) was compared to provide a basis for the evaluation of the potential of the crystal forms of salts being manufactured as a drug. […]

[2] = Solid stability experiment of crystal forms of salts (7 and 14 days); format: physicochemical
Procedure: • 3.1 Experimental objective: To investigate the physical and chemical stability for different crystal forms of salts under the conditions of a high temperature of 60°C (GW), a high humidity of RH = 92.5% (GS), and both a high temperature of 50°C and a high humidity of RH = 75% (JS) and provide a basis for the screening of the crystal forms of salts and the storage of the crystal forms of salts of the compound. • 3.2 Experimental scheme: Different crystal forms of salts (crystal form A of hydrochloride, crystal form A of sulphate, crystal form A of citrate, crystal form A of oxalate, crystal form A of maleate and crystal form A of salicylate) were accurately weighed, and the stability of the crystal forms was investigated for 7 and 14 days under the three conditions of 60°C (GW), 92.5% RH (room temperature, GS), and 50°C/75% RH (JS). […] Therefore, they can well meet the requirements of subsequent drug development. […] Therefore, they both satisfy the requirements for subsequent drug storage.

[3] = Hygroscopicity experiment (crystal forms of salts and crystal form A of free base); format: physicochemical; conditions: for weight gain after moisture absorption / hygroscopicity: RH 80%; for hygroscopicity: result in words; for crystal form transformation (XRPD pattern): after 1 cycle of moisture absorption and desorption, 0-95% relative humidity
Excerpt: • 2.1 Experimental objective: The hygroscopicity of different crystal forms of salts of the compound was investigated under various relative humidity conditions to provide a basis for screening and storage of the crystal forms of salts of the compound. • 2.2 Experimental scheme: The crystal forms of salts of the compound were placed in saturated water vapor at different relative humidities to reach a dynamic equilibrium between the compound and the water vapor.
3.1 Experimental objective: The hygroscopicity of crystal form A of free base of the compound was investigated under various relative humidity conditions to provide a basis for screening and storage of the crystal forms of the compound.
3.2 Experimental scheme: The crystal form A of free base of the compound was placed in saturated water vapor at different relative humidities to reach a dynamic equilibrium between the compound and the water vapor. The percentage weight gain of the compound due to moisture absorption was calculated after the equilibrium.

[4] = high temperature, high humidity, and both high temperature and high humidity conditions, 7 and 14 days
[5] = placed for a period of time under various conditions
[6] = high temperature and high humidity conditions, 7 and 14 days

Structure (SMILES)	IC50 (Ba/F3 EGFR Del19/C797S)	thermodynamic solubility FaSSGF [1]	thermodynamic solubility FaSSIF [1]	thermodynamic solubility FeSSIF [1]	stability (impurity increase) [2, 4]	weight gain after moisture absorption [3]	hygroscopicity [3]	crystal form transformation (XRPD pattern) [3]	stability (impurity increase) [2, 5]	stability (impurity increase) [2, 6]
CC(C)c1c(F)cc(N2CC(N(C)S(C)(=O)=O)C2)c2cnc(Nc3ccnc(-c4cn(C)nc4Cl)n3)cc12 [Example 3, N-(1-(3-((2-(3-chloro-1-methyl-1H-pyrazol-4-yl)pyrimidin-4-yl)amino)-6-fluoro-5-isopropylisoquinolin-8-yl)azetidin-3-yl)-N-methylmethanesulphonamide]	0.014 µM	–	–	–	–	–	–	–	–	–
Cc1nn(C)cc1-c1nccc(Nc2cc3c(C(C)C)c(F)cc(N4CC(N(C)S(C)(=O)=O)C4)c3cn2)n1 [Example 6, N-(1-(3-((2-(1,3-dimethyl-1H-pyrazol-4-yl)pyrimidin-4-yl)amino)-6-fluoro-5-isopropylisoquinolin-8-yl)azetidin-3-yl)-N-methylmethanesulphonamide]	0.022 µM	–	–	–	–	–	–	–	–	–
CC(C)c1c(F)cc(N2CC(NS(C)(=O)=O)C2)c2cnc(Nc3ccnc(-c4cn(C)nc4Cl)n3)cc12 [Example 13, N-(1-(3-((2-(3-chloro-1-methyl-1H-pyrazol-4-yl)pyrimidin-4-yl)amino)-6-fluoro-5-isopropylisoquinolin-8-yl)azetidin-3-yl)methanesulphonamide]	0.019 µM	–	–	–	–	–	–	–	–	–
CC(C)c1c(F)cc(N2C[C@H](N(C)S(C)(=O)=O)[C@H]2C)c2cnc(Nc3ccnc(-c4cn(C)nc4Cl)n3)cc12 [crystal form A of citrate, N-((2R,3S)-1-(3-((2-(3-chloro-1-methyl-1H-pyrazol-4-yl)pyrimidin-4-yl)amino)-6-fluoro-5-isopropylisoquinolin-8-yl)-2-methylazetidin-3-yl)-N-methylmethanesulphonamide]	–	0.053	0.159	>0.870	relatively stable	0.573%	weak hygroscopicity	no crystal form transformation occurred	–	–
CC(C)c1c(F)cc(N2C[C@H](N(C)S(C)(=O)=O)[C@H]2C)c2cnc(Nc3ccnc(-c4cn(C)nc4Cl)n3)cc12 [crystal form A of hydrochloride, N-((2R,3S)-1-(3-((2-(3-chloro-1-methyl-1H-pyrazol-4-yl)pyrimidin-4-yl)amino)-6-fluoro-5-isopropylisoquinolin-8-yl)-2-methylazetidin-3-yl)-N-methylmethanesulphonamide]	–	0.072	0.214	>1.016	–	–	–	–	remain stable	–
CC(C)c1c(F)cc(N2C[C@H](N(C)S(C)(=O)=O)[C@H]2C)c2cnc(Nc3ccnc(-c4cn(C)nc4Cl)n3)cc12 [crystal form A of maleate, N-((2R,3S)-1-(3-((2-(3-chloro-1-methyl-1H-pyrazol-4-yl)pyrimidin-4-yl)amino)-6-fluoro-5-isopropylisoquinolin-8-yl)-2-methylazetidin-3-yl)-N-methylmethanesulphonamide]	–	0.075	0.029	>1.020	–	2.050%	–	no crystal form transformation occurred	–	relatively stable
CC(C)c1c(F)cc(N2C[C@H](N(C)S(C)(=O)=O)[C@H]2C)c2cnc(Nc3ccnc(-c4cn(C)nc4Cl)n3)cc12 [crystal form A of oxalate, N-((2R,3S)-1-(3-((2-(3-chloro-1-methyl-1H-pyrazol-4-yl)pyrimidin-4-yl)amino)-6-fluoro-5-isopropylisoquinolin-8-yl)-2-methylazetidin-3-yl)-N-methylmethanesulphonamide]	–	0.070	0.035	1.228	relatively stable	1.707%	weak hygroscopicity	no crystal form transformation occurred	–	–
CC(C)c1c(F)cc(N2C[C@H](N(C)S(C)(=O)=O)[C@H]2C)c2cnc(Nc3ccnc(-c4cn(C)nc4Cl)n3)cc12 [crystal form A of salicylate, N-((2R,3S)-1-(3-((2-(3-chloro-1-methyl-1H-pyrazol-4-yl)pyrimidin-4-yl)amino)-6-fluoro-5-isopropylisoquinolin-8-yl)-2-methylazetidin-3-yl)-N-methylmethanesulphonamide]	–	0.020	0.101	0.672	–	0.1374%	weak hygroscopicity	no crystal form transformation occurred	–	relatively stable
CC(C)c1c(F)cc(N2C[C@H](N(C)S(C)(=O)=O)[C@H]2C)c2cnc(Nc3ccnc(-c4cn(C)nc4Cl)n3)cc12 [crystal form A of sulphate, N-((2R,3S)-1-(3-((2-(3-chloro-1-methyl-1H-pyrazol-4-yl)pyrimidin-4-yl)amino)-6-fluoro-5-isopropylisoquinolin-8-yl)-2-methylazetidin-3-yl)-N-methylmethanesulphonamide]	–	0.096	0.034	1.114	–	4.616%	–	no crystal form transformation occurred	remain stable	–
CC(C)c1c(F)cc(N2C[C@H](N(C)S(C)(=O)=O)[C@H]2C)c2cnc(Nc3ccnc(-c4cn(C)nc4Cl)n3)cc12 [crystal form B of hydrochloride, N-((2R,3S)-1-(3-((2-(3-chloro-1-methyl-1H-pyrazol-4-yl)pyrimidin-4-yl)amino)-6-fluoro-5-isopropylisoquinolin-8-yl)-2-methylazetidin-3-yl)-N-methylmethanesulphonamide]	–	–	–	–	–	1.157%	weak hygroscopicity	no crystal form transformation occurred	–	–
